Experimental findings from patent US20100222269A1, “IMPROVED DERIVATIVES OF AMYLIN” (priority 2007, published 2010) are described below.

The target of this assay is T1, Amylin 3(a) receptor (human calcitonin receptor (CTa) with RAMP-3) (Homo sapiens, UniProt O60896+P30988).
T1 construct: expressed in transfected cells; host or cells: BHK570 (baby hamster kidney) cells, stably transfected, with CRE-luciferase reporter
Put plainly: Amylin luciferase assay (CRE-luciferase reporter in BHK Amylin 3(a)//CRE-luc cells). The assay is classed as cell-based. The text has this:
It has previously been published (Poyner D R et al 2002, Pharmacological Reviews 54(2) 233-246) that activation of Amylin receptors (coexpression of Calcitonin receptor and receptor activity modifying peptides RAMPs) by Amylin leads to an increase in the intracellular concentration of cAMP. Consequently, transcription is activated at promotors containing multiple copies of the cAMP response element (CRE). It is thus possible to measure Amylin activity by use of a CRE luciferase reporter gene introduced into BHK cells also expressing an Amylin receptor.
2. Construction of an Amylin 3(a)/CRE-luc Cell Line
A BHK570 cell line stably transfected with the human calcitonin receptor (CTa) and a CRE-responsive luciferase reportergene. The cell line was further transfected with RAMP-3, using standard methods. This turns the Calcitonin receptor into an Amylin 3(a) receptor. Methotrexate, Neomycin, and Hygromycin are selection markers for luciferase, the Calcitonin receptor, and RAMP-3, respectively.
3. Amylin Luciferase Assay
To perform activity assays, BHK Amylin 3(a)//CRE-luc cells were seeded in white 96 well culture plates at a density of about 20.000 cells/well. The cells were in 100 μl growth medium (DMEM with 10% FBS, 1% Pen/Strep, 1 mM Na-pyruvate, 250 nM Methotrexate, 500 μg/ml Neomycin, and 400 μg/ml Hygromycin). After incubation overnight at 37° C. and 5% CO2, the growth medium was replaced by 50 μl/well assay medium (DMEM (without phenol red), Glumamax™, 10% FBS, and 10 mM Hepes, pH 7,4). Further, 50 μl/well of standard or sample in assay buffer were added. After 4 hours incubation at 37° C. and 5% CO2, the assay medium with standard or sample were removed and replaced by 100 μl/well PBS. Further, 100 μl/well LucLite™ was added. The plates were sealed and incubated at room temperature for 30 minutes. Finally, luminescence was measured on a TopCounter (Packard) in SPC (single photon counting) mode.
(Reporter assays use an easily measured gene product as a stand-in for the process of interest.)

[1] abbreviates: BHK570 cells with human calcitonin receptor (CTa), RAMP-3 and CRE-luciferase reporter, 4 hours incubation, read-out: Potency luciferase assay.

Each structure is given as a SMILES string. pEC50: −log10 of the molar value. Read-outs that look alike come from different tables or passages of the source. Starred links: 1 amine or outer side, 2 acyl side, 3 side chain; linkers in the order of their positions; H or OH if unused. Positions of bridges follow the written chain, without caps; N, C: chain ends. Residues, ends and D or L forms follow the SMILES beside them. Groups on a side chain read outwards from the residue. *: point of attachment. C20 diacid = O=C(O)CCCCCCCCCCCCCCCCCCC(=O)*; C18 diacid = O=C(O)CCCCCCCCCCCCCCCCC(=O)*; γGlu = O=C(O)[C@H](CCC(=O)[*:2])N[*:1]; AEEA = NCCOCCOCC(=O)O

T1 sequence (O60896 24-148): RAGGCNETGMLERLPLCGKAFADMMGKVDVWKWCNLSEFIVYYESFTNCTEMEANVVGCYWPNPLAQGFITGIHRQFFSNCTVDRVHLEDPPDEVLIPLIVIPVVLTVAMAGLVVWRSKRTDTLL
T1 sequence (P30988 25-474): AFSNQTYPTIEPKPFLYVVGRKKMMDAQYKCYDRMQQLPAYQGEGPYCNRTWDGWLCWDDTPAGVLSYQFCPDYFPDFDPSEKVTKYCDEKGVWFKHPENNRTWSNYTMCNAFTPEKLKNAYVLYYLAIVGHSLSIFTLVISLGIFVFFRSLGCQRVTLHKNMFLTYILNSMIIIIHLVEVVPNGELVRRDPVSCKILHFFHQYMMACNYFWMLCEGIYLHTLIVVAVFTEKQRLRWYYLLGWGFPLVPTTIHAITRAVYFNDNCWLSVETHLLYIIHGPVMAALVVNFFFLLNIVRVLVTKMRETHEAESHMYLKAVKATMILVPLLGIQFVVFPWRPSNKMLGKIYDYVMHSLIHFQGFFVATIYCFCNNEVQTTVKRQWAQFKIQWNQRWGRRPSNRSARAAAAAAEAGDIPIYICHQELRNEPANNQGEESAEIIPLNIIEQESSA

`CC[C@H](C)[C@H](NC(=O)[C@H](CCCCNC(=O)COCCOCCNC(=O)COCCOCCNC(=O)CCCCCCCCCCCCCCCCC(=O)O)NC(=O)CNC(=O)[C@H](Cc1ccccc1)NC(=O)[C@H](CC(N)=O)NC(=O)[C@H](CC(N)=O)NC(=O)[C@H](CO)NC(=O)[C@H](CO)NC(=O)[C@H](CCCNC(=N)N)NC(=O)[C@@H](NC(=O)[C@H](CC(C)C)NC(=O)[C@H](Cc1ccccc1)NC(=O)[C@H](CC(N)=O)NC(=O)[C@H](C)NC(=O)[C@H](CC(C)C)NC(=O)[C@H](CCCNC(=N)N)NC(=O)[C@H](CCC(N)=O)NC(=O)[C@@H](NC(=O)[C@H](C)NC(=O)[C@@H]1CSSC[C@H](NC(=O)[C@@H](N)CCCCN)C(=O)N[C@@H](CC(N)=O)C(=O)N[C@@H]([C@@H](C)O)C(=O)N[C@@H](C)C(=O)N[C@@H]([C@@H](C)O)C(=O)N1)[C@@H](C)O)C(C)C)C(=O)N[C@@H](CC(C)C)C(=O)N1CCC[C@H]1C(=O)N1CCC[C@H]1C(=O)N[C@H](C(=O)N[C@@H](CC(N)=O)C(=O)N[C@H](C(=O)NCC(=O)N[C@@H](CO)C(=O)N[C@@H](CC(N)=O)C(=O)N[C@H](C(=O)N[C@@H](Cc1ccc(O)cc1)C(N)=O)[C@@H](C)O)C(C)C)[C@@H](C)O` [Example 9, N-epsilon25-(2-{2-[2-(2-{2-[2-(17-carboxyheptadecanoylamino)ethoxy]ethoxy}acetylamino)ethoxy]ethoxy}acetyl)-[Arg18,Lys25]-pramlintide (1-37)] (H-KCNTATCATQRLANFLVRSSNNFGK([AEEA-AEEA-C18 diacid])ILPPTNVGSNTY-NH2; disulfide 2-7): under setting [1], the pEC50 was 10.40.
Still for that read-out and setting: next, `CC[C@H](C)[C@H](NC(=O)[C@H](CCCCNC(=O)COCCOCCNC(=O)COCCOCCNC(=O)CCCCCCCCCCCCCCCCCCC(=O)O)NC(=O)CNC(=O)[C@H](Cc1ccccc1)NC(=O)[C@H](CC(N)=O)NC(=O)[C@H](CC(N)=O)NC(=O)[C@H](CO)NC(=O)[C@H](CO)NC(=O)[C@H](Cc1c[nH]cn1)NC(=O)[C@@H](NC(=O)[C@H](CC(C)C)NC(=O)[C@H](Cc1ccccc1)NC(=O)[C@H](CC(N)=O)NC(=O)[C@H](C)NC(=O)[C@H](CC(C)C)NC(=O)[C@H](CCCNC(=N)N)NC(=O)[C@H](CCC(N)=O)NC(=O)[C@@H](NC(=O)[C@H](C)NC(=O)[C@@H]1CSSC[C@H](NC(=O)[C@@H](N)CCCCN)C(=O)N[C@@H](CC(N)=O)C(=O)N[C@@H]([C@@H](C)O)C(=O)N[C@@H](C)C(=O)N[C@@H]([C@@H](C)O)C(=O)N1)[C@@H](C)O)C(C)C)C(=O)N[C@@H](CC(C)C)C(=O)N1CCC[C@H]1C(=O)N1CCC[C@H]1C(=O)N[C@H](C(=O)N[C@@H](CC(N)=O)C(=O)N[C@H](C(=O)NCC(=O)N[C@@H](CO)C(=O)N[C@@H](CC(N)=O)C(=O)N[C@H](C(=O)N[C@@H](Cc1ccc(O)cc1)C(N)=O)[C@@H](C)O)C(C)C)[C@@H](C)O` [Example 10, N-epsilon25-(2-{2-[2-(2-{2-[2-(19-carboxynonadecanoylamino)ethoxy]ethoxy}acetylamino)ethoxy]ethoxy}acetyl)-[Lys25]-pramlintide (1-37)] (H-KCNTATCATQRLANFLVHSSNNFGK([AEEA-AEEA-C20 diacid])ILPPTNVGSNTY-NH2; disulfide 2-7; N-terminus and C-terminus assumed): 10.22.
Consider `CC[C@H](C)[C@H](NC(=O)[C@@H]1CCCN1C(=O)CNC(=O)[C@H](Cc1ccccc1)NC(=O)[C@H](CC(N)=O)NC(=O)[C@H](CC(N)=O)NC(=O)[C@H](CO)NC(=O)[C@H](CO)NC(=O)[C@H](Cc1c[nH]cn1)NC(=O)[C@@H](NC(=O)[C@H](CC(C)C)NC(=O)[C@H](Cc1ccccc1)NC(=O)[C@H](CC(N)=O)NC(=O)[C@H](C)NC(=O)[C@H](CC(C)C)NC(=O)[C@H](CCCNC(=N)N)NC(=O)[C@H](CCC(N)=O)NC(=O)[C@@H](NC(=O)[C@H](C)NC(=O)[C@@H]1CSSC[C@H](NC(=O)[C@@H](N)CCCCN)C(=O)N[C@@H](CCCCNC(=O)COCCOCCNC(=O)COCCOCCNC(=O)CC[C@H](NC(=O)CCCCCCCCCCCCCCCCC(=O)O)C(=O)O)C(=O)N[C@@H]([C@@H](C)O)C(=O)N[C@@H](C)C(=O)N[C@@H]([C@@H](C)O)C(=O)N1)[C@@H](C)O)C(C)C)C(=O)N[C@@H](CC(C)C)C(=O)N1CCC[C@H]1C(=O)N1CCC[C@H]1C(=O)N[C@H](C(=O)N[C@@H](CC(N)=O)C(=O)N[C@H](C(=O)NCC(=O)N[C@@H](CO)C(=O)N[C@@H](CC(N)=O)C(=O)N[C@H](C(=O)N[C@@H](Cc1ccc(O)cc1)C(N)=O)[C@@H](C)O)C(C)C)[C@@H](C)O` [Example 11, N-epsilon3-[2-(2-{2-[2-(2-{2-[(S)-4-carboxy-4-(17-carboxyheptadecanoylamino)butyrylamino]ethoxy}ethoxy)acetylamino]ethoxy}ethoxy)acetyl]-[Lys3]-pramlintide (1-37)] (H-KCK([AEEA-AEEA-γGlu-C18 diacid])TATCATQRLANFLVHSSNNFGPILPPTNVGSNTY-NH2; disulfide 2-7; N-terminus assumed), for which the pEC50 was 9.70.
Take `CC[C@H](C)[C@H](NC(=O)[C@@H]1CCCN1C(=O)CNC(=O)[C@H](Cc1ccccc1)NC(=O)[C@H](CC(N)=O)NC(=O)[C@H](CC(N)=O)NC(=O)[C@H](CO)NC(=O)[C@H](CO)NC(=O)[C@H](Cc1c[nH]cn1)NC(=O)[C@@H](NC(=O)[C@H](CC(C)C)NC(=O)[C@H](Cc1ccccc1)NC(=O)[C@H](CC(N)=O)NC(=O)[C@H](C)NC(=O)[C@H](CC(C)C)NC(=O)[C@H](CCCNC(=N)N)NC(=O)[C@H](CCC(N)=O)NC(=O)[C@@H](NC(=O)[C@H](C)NC(=O)[C@@H]1CSSC[C@H](NC(=O)[C@@H](N)CCCCN)C(=O)N[C@@H](CCCCNC(=O)COCCOCCNC(=O)COCCOCCNC(=O)CC[C@H](NC(=O)CCCCCCCCCCCCCCCCCCC(=O)O)C(=O)O)C(=O)N[C@@H]([C@@H](C)O)C(=O)N[C@@H](C)C(=O)N[C@@H]([C@@H](C)O)C(=O)N1)[C@@H](C)O)C(C)C)C(=O)N[C@@H](CC(C)C)C(=O)N1CCC[C@H]1C(=O)N1CCC[C@H]1C(=O)N[C@H](C(=O)N[C@@H](CC(N)=O)C(=O)N[C@H](C(=O)NCC(=O)N[C@@H](CO)C(=O)N[C@@H](CC(N)=O)C(=O)N[C@H](C(=O)N[C@@H](Cc1ccc(O)cc1)C(N)=O)[C@@H](C)O)C(C)C)[C@@H](C)O` [Example 12, N-epsilon3-[2-(2-{2-[2-(2-{2[(S)-4-carboxy-4-(19-carboxynonadecanoylamino)butyrylamino]ethoxy}ethoxy)acetylamino]ethoxy}ethoxy)acetyl]-[Lys3]-pramlintide (1-37)] (H-KCK([AEEA-AEEA-γGlu-C20 diacid])TATCATQRLANFLVHSSNNFGPILPPTNVGSNTY-NH2; disulfide 2-7; N-terminus and C-terminus assumed): the pEC50 under setting [1] was 9.52.
